# Results as given in US20080075796A1, “Compositions and Methods for Controlling Insects” (TyraTech, Inc., priority 2003, published 2008).
# Assays:
# [1] = biological target: T1, Or83b receptor (Drosophila melanogaster, UniProt Q9VNB5); assay: cAMP production in Schneider cells expressing Or83b receptor; type: cell-based
# T1 construct: His (from vector pAc5.1/V5-His B) (C); expressed in transfected cells
# T1 sequence (Q9VNB5 1-486): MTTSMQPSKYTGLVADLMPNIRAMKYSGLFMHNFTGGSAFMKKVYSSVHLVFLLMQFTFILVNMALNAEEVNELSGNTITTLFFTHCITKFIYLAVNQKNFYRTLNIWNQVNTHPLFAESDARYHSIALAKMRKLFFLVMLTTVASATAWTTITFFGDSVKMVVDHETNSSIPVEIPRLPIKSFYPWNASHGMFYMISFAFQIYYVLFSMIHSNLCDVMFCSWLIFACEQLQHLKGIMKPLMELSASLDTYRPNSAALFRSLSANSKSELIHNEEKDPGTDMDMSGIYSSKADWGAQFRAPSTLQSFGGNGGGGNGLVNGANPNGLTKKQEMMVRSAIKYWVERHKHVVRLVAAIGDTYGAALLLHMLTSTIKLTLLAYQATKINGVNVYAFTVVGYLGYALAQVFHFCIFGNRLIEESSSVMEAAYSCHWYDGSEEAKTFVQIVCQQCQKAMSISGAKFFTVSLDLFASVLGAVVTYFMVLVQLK
# Method: Cells are grown on dishes and the media changed the day before the treatment. When cells are approximately 95% confluent, media is aspirated and the cells are washed one time with about 5 mL of about 27° C. insect saline (170 mM NaCl, 6.0 mM KCl, 2.0 mM NaHCO3, 17.0 mM glucose, 6.0 mM NaH2PO4, 2.0 mM CaCl2, 4.0 mM MgCl2; pH 7.0). About 20 mL of insect saline is added, and cells are harvested by gentle scraping. An aliquot of the cells is counted by hemocytometer, and the cells are then centrifuged for about 5 minutes at about 1000 RPM. Cells are resuspended to give about 3×10^6 cells per mL. IBMX is added to about 200 μM. Then about 1 mL of cell suspension is aliquoted for treatment. Forskolin (cAMP inducing agent), tyramine or different composition candidates are added, and the cells are incubated at about 27° C. for about 10 minutes.
# Treated cells are centrifuged at about 13000 g for about 10 seconds. The solution is aspirated and about 1 mL of about −20° C. 70% ethanol is added. The cell pellet is disrupted by vortexing and the samples placed at about −20° C. overnight. Following the ethanol extraction, cellular debris is pelleted by centrifugation at about 13000 g for about 5 minutes. The supernatant is transferred to a tube and lyophilized to dryness in a rotary speed-vac. The resulting extract is resuspended in about 100 μL TE and used for the cAMP assay.
# The cAMP assay is based on competition binding between endogenous cAMP and ^3H-cAMP to a cAMP binding protein. The ^3H-cAMP Biotrak system (Amersham Biosciences) is used for this assay as per the manufacturer's instructions. Briefly, about 50 μL of the cellular extract is incubated with about 50 μL ^3H-cAMP and about 100 μL cAMP binding protein in an ice bath for about 2-4 hours. Charcoal (about 100 μL) is then added and the solution centrifuged for about 3 minutes at about 4° C. About 200 μL of the reaction mixture is removed and levels of ^3H-cAMP are determined by scintillation counting. Levels of endogenous cAMP from the cells are calculated using a standard curve with cold cAMP ranging from about 0 to 16 pmol per reaction.
# To ensure that the cAMP cascade in this cell model is functionally active, forskolin, a cAMP inducer, is used as standard agent. Cyclic-AMP levels are measured using the cAMP assay described above in Example 2. […]
# To determine the effect of various plant essential oils on intracellular cAMP production and the tyramine-dependent changes of cAMP in cells expressing one of the olfactory receptors, cells from each cell model are treated with LFO (about 50 μg/ml) and BSO (about 50 μg/ml) in the presence and absence of tyramine (about 20 μM) and forskolin (about 10 μM) and intracellular cAMP is thereafter quantified using the cAMP assay described above in Example 2.
# [2] = biological target: T2, Or43a receptor (Drosophila melanogaster, UniProt P81917, L154V); assay: biochemical; type: binding
# T2 construct: His (from vector pAc5.1/V5-His B) (C); expressed in transfected cells
# Method: To address whether Or83b receptor and Or43a receptor contain a specific binding site for tyramine, membranes expressing Or83b receptor or Or43a receptor are prepared from cells expressing either receptor, as described above, and used for competitive binding with ^3H-tyramine. The binding assay protocol is exactly as described for cells expressing TyrR, as described above.
# [3] = biological target: T1, Or83b receptor; assay: Intracellular Ca^2+ mobilization in Schneider cells expressing Or83b receptor; type: cell-based; settings: ionomycin about 2 μM, tyramine about 10 μM
# Method: (§1) Intracellular calcium ion concentrations ([Ca^2+]i) are measured by using the acetoxymethyl (AM) ester of the fluorescent indicator fura-2 (Enan, et al., Biochem. Pharmacol vol 51, 447-454). In this study, cells expressing tyramine receptor are grown under standard conditions. A cell suspension is prepared in assay buffer (140 mM NaCL, 10 mM HEPES, 10 mM glucose, 5 mM KCl, 1 mM CaCl2, 1 mM MgCl2) and cell number adjusted to about 2×10^6 cells per ml. Briefly, about 1.0 ml cell suspension (about 2×10^6 cells) is incubated with about 5 μM Fura 2/AM for about 30 min at about 28° C. After incubation, the cells are pelleted at about 3700 rpm for about 10 sec at room temperature and then resuspended in about 1.5 ml assay buffer. [Ca^2+]i changes are analyzed in spectrofluorometer in the presence and absence of test chemicals. Excitation wave lengths are about 340 nm (generated by Ca^2+-bound fura-2) and about 380 nm (corresponding to Ca^2+-free fura-2). The fluorescence intensity is monitored at an emission wave length of about 510 nm. No absorbance of fluorescence artifacts are observed with any of the compounds used. The ratio of about 340/380 nm is calculated and plotted as a function of time.
# (§2) Intracellular Ca^2+ levels are measured using the method described above in Example 3.
# [4] = biological target: T2, Or43a receptor; assay: Intracellular Ca^2+ mobilization in Schneider cells expressing Or43a receptor; type: cell-based
# Method: as §1, §2
# Changes in intracellular Ca^2+ levels are calculated based on the difference between the 340/380 fluorescence ratios before and after approximately 150 seconds of the treatment.
# T2 sequence (P81917 whole entry L154V): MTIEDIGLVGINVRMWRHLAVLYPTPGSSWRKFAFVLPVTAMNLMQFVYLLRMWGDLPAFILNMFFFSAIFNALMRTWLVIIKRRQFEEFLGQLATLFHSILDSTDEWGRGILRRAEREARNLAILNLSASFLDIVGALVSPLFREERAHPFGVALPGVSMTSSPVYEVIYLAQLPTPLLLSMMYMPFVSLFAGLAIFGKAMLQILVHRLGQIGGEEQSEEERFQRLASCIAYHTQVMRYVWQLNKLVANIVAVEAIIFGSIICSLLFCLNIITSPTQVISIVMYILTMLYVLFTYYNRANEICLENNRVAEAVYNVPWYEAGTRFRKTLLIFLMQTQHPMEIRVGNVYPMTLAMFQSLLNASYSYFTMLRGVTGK
compound,measurement,setting,value
NCCc1ccc(O)cc1 [tyramine],increase of cAMP production beyond the effect of forskolin by itself,[1]; forskolin-pretreated cells (about 10 μM),10-13%
same,increase in cAMP production,"[1]; tyramine about 20 μM, LFO and BSO about 50 μg/ml",approximately 34%
same,Kd,[2],~13.5 nM
same,Ki,[2],13.5 nM
same,increase in intracellular calcium,[3],~1.18 fold
same,change in intracellular Ca^2+ levels (340/380 fluorescence ratio),[4]; before vs approximately 150 seconds after treatment,only negligibly
same,increase in intracellular calcium,"[4]; ionomycin about 2 μM, tyramine about 10 μM",~3.5 fold
